# Columns and labels:
# [1] = test system: mice subjected to restraint stress; assay: Light-dark box after restraint stress (Example 1, Experiment 1); type: in vivo, C57BL/6 mice; conditions: RS mice treated with cotinine; p=0.035
# Method: (§1) Mice were treated immediately after the 21 days of immobilization stress (6 h/day) until euthanasia. Mice (n=5-8/condition) received daily treatments with 1. PBS (phosphate buffer saline, pH 7.4) via intranasal (2×12 μl/nostril), 2. PBS via gavage (50 μl); 3. Cotinine dissolved in PBS via oral (gavage, (0.5 mg/kg; Cot 0.5); 4. Cotinine dissolved in PBS via intranasal (Cot IN, 10 mg/ml, 2×12 μl/nostril).
# (§2) To induce chronic stress, the restraint stress paradigm was used as previously described. Mice are immobilized in 50 ml falcon plastic tubes that were attached to mouse cages. The immobilization proceeded during 6 h from 9:00 AM to 3:00 PM in absence of treatments. Tubes have holes in the opposite side of the tube to allow the animal breathing and urination. Mice were almost completely immobilized for 6 h/day for 21 days after which they were permitted freely to move, eat and drink.
# Behavioral analysis was performed using the Any-maze® software (Stoelting CO, USA) to track the activity of animals. Mice were tested for depressive behavior, anxiety, locomotor activity and working memory using the Porsolt's test; Light-dark box (LDB) and the elevated plus Maze (EPM), open field (OF), and Novel object recognition (NOR), respectively.
# [2] = test system: restrained mice; assay: Open field test, oral co-treatment during restraint stress (Example 3); type: in vivo, C57BL/6J mice; conditions: oral cotinine 5 mg/kg, KO 143 mg/kg or both, 25 min
# Method: Mice after acclimatization and one week of handling were randomly divided into five groups (n=8/condition) and orally treated as follow: 1) control non-restrained mice treated with vehicle (PBS, pH 7.4); 2) restrained mice treated with vehicle; 3), restrained mice treated with a cotinine solution (5 mg/kg in PBS, pH 7.4) via gavage; 4) restrained mice treated with KO (143 mg/kg); 5) restrained mice treated with cotinine plus KO solution. Mice were started with treatments, the first day of restraint and continuously until euthanasia. Treatments were administered at the same time of the day, 30 min before restraint. After 21 days into treatments, mice were behaviorally tested (FIG. 17).
# Restraint stress (RS) was used as a model of chronic stress-induced depressive-like behavior and cognitive impairment. We used this task because is a reliable method that mimics the effects of chronic stress without causing physical pain or unnecessary discomfort to the mice. Mice were gently introduced into a 50-ml conical transparent plastic tubes (Corning Inc.). […]
# The open field (OF) test was conducted as previously described with minor modifications to identify changes in locomotor activity in response to stress and/or drug treatments. […] Total distance traveled, and time spent in the center zone were measured under moderate lighting using the video tracking software (ANY-Maze, Stoelting Co.).
# [3] = test system: restrained mice; assay: Open field test after chronic restraint stress (Example 2); type: in vivo, C57BL/6 male mice; conditions: IN cotinine 24 μl of 10 mg/ml daily, RS+PBS 61±19 m
# Method: Mice between 2-3 months of age after one week of acclimatization were randomly divided into two groups. Stressed mice were subjected to restraint stress. Control (non-restrained) mice were allowed to move freely during this period. After the stress exposure period, mice were divided into three experimental groups: 1) Non-restrained mice treated with vehicle (PBS, pH 7.4) serving as unstressed controls (n=8); 2) Restrained mice (RS) treated with vehicle (n=8); 3), RS mice treated with 24 μl of a cotinine solution (10 mg/ml in PBS, pH 7.4) via intranasal route of administration (n=6). Treatments were administered daily until euthanasia. After two weeks of treatments mice were behaviorally tested and euthanized (FIG. 10) Intranasal delivery was performed as previously described (Hanson and Frey, 2007). Mice at 2-3 months of age were hand-restrained, positioned in a supine position, and administered two 12 μl drops of cotinine solution (10 mg/ml in PBS), or PBS alone, into both nares. […] Mice were individually placed in an uncovered square arena (40 cm×40 cm×35 cm), allowed to freely explore for 30 minutes (min) while monitored with a video tracking software (ANY-Maze®, Stoelting Co., Illinois, USA) under moderate lighting. Several parameters including total distance traveled, speed, and time spent in the center and peripheral zones (20 cm×20 cm) were measured to assess locomotor activity.
# [4] = test system: mice subjected to restraint stress; assay: Novel object recognition after restraint stress (Example 1, Experiment 1); type: in vivo, C57BL/6 mice; conditions: RS mice, 14 days of IN cotinine; p<0.05
# Method: as §1, §2
# After a habituation step in the OF arena, each mouse was individually placed in the apparatus containing two identical objects located equidistant to each other (familiarization phase) and left to explore the objects for 5 min. Then, mice were returned to their cages and permitted to rest for 30 min. […] The time exploring the two objects was recorded during 5 min. […]
# [5] = test system: mice subjected to restraint stress; assay: Open field test after restraint stress (Example 1, Experiment 1); type: in vivo, C57BL/6 mice; conditions: RS mice, IN cotinine 10 mg/ml, 25 min of testing; p=0.058
# Method: as §1, §2
# OF is used to monitor locomotor activity. […] Several parameters including, total distance traveled, speed, rearing behavior and time spent in the center and peripheral zones (20 cm×20 cm) are measured to assess locomotor activity and behavioral changes induced by stress.
compound,measurement,setting,value
"CN1C(=O)CC[C@H]1c1cccnc1 [Cotinine, (5S)-1-methyl-5-(3-pyridyl) pyrrolidin-2-one]",number of entries to the light zone (light-dark box),[1],almost completely restored the number of entries to the light zone
same,"locomotor activity in the open field (distance traveled, speed)",[2],no significant changes in locomotor activity
same,distance traveled in the OF test,[3],49±13 m
same,number of entries into the new object area (NOR),[4],increased the number of entries into the new object area to control values
same,distance traveled in the open field test,[5],44±18 m
